According to the NIST ThermoML archive (doi:10.1016/j.jct.2006.07.025):
± gives the expanded uncertainty stated by the source.

Assay: xn = mol fraction of the nth substance listed
Conditions: for surface tension liquid-gas: Pendant drop shape; for mass density: 101 kPa, Liquid, Vibrating tube method

Cc1ccc(C)c(C)c1 [1,2,4-trimethylbenzene] + CCCOC(C)=O
Conditions	mass density [kg/m3]	surface tension liquid-gas [mN/m]
298.15 K, x2 = 0	871.66 ± 0.19	29.17 ± 0.33
298.15 K, x2 = 0.0607	872.13 ± 0.19	–
298.15 K, x2 = 0.1002	872.45 ± 0.19	28.61 ± 0.32
298.15 K, x2 = 0.1578	872.95 ± 0.18	–
298.15 K, x2 = 0.2008	873.32 ± 0.18	28.06 ± 0.31
298.15 K, x2 = 0.2518	873.78 ± 0.18	–
298.15 K, x2 = 0.302	874.24 ± 0.17	27.51 ± 0.31
298.15 K, x2 = 0.3504	874.71 ± 0.17	–
298.15 K, x2 = 0.4003	875.2 ± 0.17	26.97 ± 0.3
298.15 K, x2 = 0.4568	875.78 ± 0.17	–
298.15 K, x2 = 0.4993	876.23 ± 0.17	26.44 ± 0.3
298.15 K, x2 = 0.549	876.77 ± 0.16	–
298.15 K, x2 = 0.6006	877.36 ± 0.16	25.93 ± 0.29
298.15 K, x2 = 0.6494	877.93 ± 0.16	–
298.15 K, x2 = 0.7006	878.55 ± 0.16	25.44 ± 0.28
298.15 K, x2 = 0.7493	879.16 ± 0.16	–
298.15 K, x2 = 0.7991	879.8 ± 0.15	24.96 ± 0.28
298.15 K, x2 = 0.8497	880.49 ± 0.15	–
298.15 K, x2 = 0.8991	881.17 ± 0.15	24.48 ± 0.27
298.15 K, x2 = 0.9464	881.86 ± 0.15	–
303.15 K, x2 = 0	867.61 ± 0.19	28.67 ± 0.32
303.15 K, x2 = 0.0982	868.25 ± 0.19	28.09 ± 0.31
303.15 K, x2 = 0.1994	868.98 ± 0.18	27.53 ± 0.31
303.15 K, x2 = 0.3006	869.76 ± 0.18	26.96 ± 0.3
303.15 K, x2 = 0.3996	870.56 ± 0.17	26.4 ± 0.3
303.15 K, x2 = 0.503	871.46 ± 0.17	25.86 ± 0.29
303.15 K, x2 = 0.6003	872.41 ± 0.16	25.34 ± 0.28
303.15 K, x2 = 0.6979	873.41 ± 0.16	24.83 ± 0.28
303.15 K, x2 = 0.7993	874.52 ± 0.15	24.34 ± 0.27
303.15 K, x2 = 0.8992	875.72 ± 0.15	23.86 ± 0.27
308.15 K, x2 = 0	863.59 ± 0.19	28.17 ± 0.32
308.15 K, x2 = 0.0986	864.07 ± 0.19	27.57 ± 0.31
308.15 K, x2 = 0.1998	864.65 ± 0.18	26.99 ± 0.3
308.15 K, x2 = 0.3028	865.29 ± 0.18	26.41 ± 0.3
308.15 K, x2 = 0.4004	865.93 ± 0.17	25.83 ± 0.29
308.15 K, x2 = 0.5036	866.67 ± 0.17	25.27 ± 0.29
308.15 K, x2 = 0.6003	867.44 ± 0.16	24.74 ± 0.28
308.15 K, x2 = 0.6977	868.27 ± 0.16	24.22 ± 0.27
308.15 K, x2 = 0.8	869.22 ± 0.16	23.72 ± 0.27
308.15 K, x2 = 0.9005	870.23 ± 0.15	23.23 ± 0.26
313.15 K, x2 = 0	859.54 ± 0.19	27.67 ± 0.31
313.15 K, x2 = 0.0497	859.64 ± 0.19	–
313.15 K, x2 = 0.0998	859.82 ± 0.19	–
313.15 K, x2 = 0.1005	–	27.05 ± 0.31
313.15 K, x2 = 0.15	860.01 ± 0.18	–
313.15 K, x2 = 0.2001	860.24 ± 0.18	26.46 ± 0.3
313.15 K, x2 = 0.2498	860.45 ± 0.18	–
313.15 K, x2 = 0.2999	860.71 ± 0.18	25.86 ± 0.29
313.15 K, x2 = 0.35	860.98 ± 0.17	–
313.15 K, x2 = 0.4001	861.25 ± 0.17	25.26 ± 0.29
313.15 K, x2 = 0.4503	861.53 ± 0.17	–
313.15 K, x2 = 0.4997	861.83 ± 0.17	–
313.15 K, x2 = 0.4998	–	24.69 ± 0.28
313.15 K, x2 = 0.5502	862.15 ± 0.17	–
313.15 K, x2 = 0.6001	862.48 ± 0.16	24.15 ± 0.27
313.15 K, x2 = 0.6499	862.81 ± 0.16	–
313.15 K, x2 = 0.7	863.18 ± 0.16	–
313.15 K, x2 = 0.7002	–	23.61 ± 0.27
313.15 K, x2 = 0.7503	863.54 ± 0.16	–
313.15 K, x2 = 0.7998	863.94 ± 0.16	23.1 ± 0.26
313.15 K, x2 = 0.85	864.35 ± 0.15	–
313.15 K, x2 = 0.9002	864.79 ± 0.15	22.61 ± 0.26
313.15 K, x2 = 0.9495	865.18 ± 0.15	–
